Consider 12 compounds from patent US20250288573A1 (H. LEE MOFFITT CANCER CENTER AND RESEARCH INSTITUTE, INC., priority 2018, published 2025).

Test [1] concerns T cells expanded from patients with melanoma. The experiment in a line: Cytokine assays (IL-2, IFN-γ) in T cells expanded from patients with melanoma. In kind it is cell-based, human. The text has this:
Veh=vehicle-treated cells DMSO 0.1%

The target in a further test is T1, CRBN (Homo sapiens, UniProt Q96SW2).
T1 construct: endogenous in cells; host or cells: primary human T cells / CD8+ T cells from peripheral blood
T1 sequence (Q96SW2 whole entry): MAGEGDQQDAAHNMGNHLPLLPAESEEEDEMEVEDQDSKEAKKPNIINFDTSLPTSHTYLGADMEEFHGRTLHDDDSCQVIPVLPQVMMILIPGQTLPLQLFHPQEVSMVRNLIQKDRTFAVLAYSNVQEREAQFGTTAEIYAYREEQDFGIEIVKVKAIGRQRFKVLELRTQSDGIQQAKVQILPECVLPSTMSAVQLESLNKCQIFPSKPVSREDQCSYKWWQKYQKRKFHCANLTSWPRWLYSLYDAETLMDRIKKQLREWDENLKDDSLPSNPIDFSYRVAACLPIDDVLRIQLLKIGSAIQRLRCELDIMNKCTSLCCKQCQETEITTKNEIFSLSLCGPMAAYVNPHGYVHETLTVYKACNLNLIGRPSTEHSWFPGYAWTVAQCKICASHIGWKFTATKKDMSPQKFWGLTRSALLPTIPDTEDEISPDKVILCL
Description: Western blot for expression of CRBN relative to vinculin in human T cells (CRBN degradation). In kind it is cell-based. As to conditions: for remaining activity at 10 µM / remaining activity at 0.01 µM: read-out: Relative Density of CRBN (% of DMSO); for remaining activity at 0.01 µM: 24 h, 10nM, human T cells, 24 hours; for DC50: isolated human CD8+ T cells, increasing doses, read-out: DC50 for CRBN. The source says: Bortez=bortezomib; MG132=proteasome inhibitor; MLN4924=NEDD8 inhibitor.
This assay is a standard Western blot assay for expression of CRBN relative to vinculin.
[…] 0.1 percent DMSO was used as a vehicle control.
A general note: Immunoblotting shows a protein as a band on a membrane.

Test [2] has as its target T2, cereblon (CRBN) (Homo sapiens, UniProt Q96SW2). Description: Kd and % inhibition from FI. In kind it is binding. As to conditions: for Kd: FI, read-out: Kd (FI) (converted); for inhibition at 200 µM: read-out: % inhibition @ 200 uM from *FI.
Test [3] deals with T2, cereblon (CRBN). Description: Kd from ITC. In kind it is binding.
Test [4] has as its target T3, cereblon (CRBN) (Mus musculus, UniProt Q8C7D2).
T3 construct: endogenous in cells; host or cells: mouse CD8+ T cells
T3 sequence (Q8C7D2 1-445): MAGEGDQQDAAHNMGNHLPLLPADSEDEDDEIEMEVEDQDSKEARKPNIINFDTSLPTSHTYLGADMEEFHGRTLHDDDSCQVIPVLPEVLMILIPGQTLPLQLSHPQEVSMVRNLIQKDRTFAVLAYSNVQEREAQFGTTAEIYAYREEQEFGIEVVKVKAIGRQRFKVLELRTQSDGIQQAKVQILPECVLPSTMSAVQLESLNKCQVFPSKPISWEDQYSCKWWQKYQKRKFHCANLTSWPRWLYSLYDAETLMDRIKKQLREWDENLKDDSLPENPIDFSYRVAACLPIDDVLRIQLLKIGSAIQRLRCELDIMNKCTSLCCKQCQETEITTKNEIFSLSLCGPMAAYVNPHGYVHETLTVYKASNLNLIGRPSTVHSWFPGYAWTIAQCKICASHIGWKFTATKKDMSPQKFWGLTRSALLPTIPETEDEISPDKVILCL
The experiment in a line: Western blot of cereblon (CRBN) levels in mouse CD8+ T cells. In kind it is cell-based. As to conditions: 24 hours of treatment.

Test [5] has as its system IL-2. The experiment in a line: IL-2 mRNA and protein secretion in anti-CD3 stimulated human T cells. In kind it is cell-based. As to conditions: anti-CD3 stimulation without CD28 co-stimulation, relative to DMSO. On the procedure:
(§1) IL-2 mRNA (FIG. 8A) and protein secretion (FIG. 8B) were measured in cells and culture supernatant, respectively. […] Cytokine levels were determined by ELISA. […] Results are representative of three independent experiments. […] Statistical analysis was conducted ANOVA, followed by Dunnett's multiple comparison test. *=p<0.05, ***=p<0.001 FIGS. 9A-9C show the structure of cereblon is concerved across different species. […] FIG. 9C is an overlay of human and mouse cereblon (Val380 and Ile391 for mCRBN; Glu377 and Val388 for hCRBN), are demarcated as thin tubes.
Cereblon acts as the E3 ubiquitin ligase (UbL) substrate receptor component of the DNA damage binding protein 1 (DDB1), cullin-4 (CUL4A and B), and ROC1 complex ([…]). […] Blood Cancer J 5, e354, 2015). […] […]. […] Br. J. Haematol. […] Leukemia 26:1425-1429, 2012), which is the hallmark of the immunomodulatory drug class.

The test system of test [6] is IL-2. The experiment in a line: IL-2 production in mouse T cells. In kind it is cell-based. As to conditions: absence of CD28 co-stimulation. The procedure:
as §1

The next test deals with T4, Ikaros (Homo sapiens, UniProt Q13422).
T4 construct: This molecule has a DC50 for Ikaros at 10 μM and for CRBN at <1 μM; endogenous in cells; host or cells: isolated human CD8+ T cells
T4 sequence (Q13422 whole entry): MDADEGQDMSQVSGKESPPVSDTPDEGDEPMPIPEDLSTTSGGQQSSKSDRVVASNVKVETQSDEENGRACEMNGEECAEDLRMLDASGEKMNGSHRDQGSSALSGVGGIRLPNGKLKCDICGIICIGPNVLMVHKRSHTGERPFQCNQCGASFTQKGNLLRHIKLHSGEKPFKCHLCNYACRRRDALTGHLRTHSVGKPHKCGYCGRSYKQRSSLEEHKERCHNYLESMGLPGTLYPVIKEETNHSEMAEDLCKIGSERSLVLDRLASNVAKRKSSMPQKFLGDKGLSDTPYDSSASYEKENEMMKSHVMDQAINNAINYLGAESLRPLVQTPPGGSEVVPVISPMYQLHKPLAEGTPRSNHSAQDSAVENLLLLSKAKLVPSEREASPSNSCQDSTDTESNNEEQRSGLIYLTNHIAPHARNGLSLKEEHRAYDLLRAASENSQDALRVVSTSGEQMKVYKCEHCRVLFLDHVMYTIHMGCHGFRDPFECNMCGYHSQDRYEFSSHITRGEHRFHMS
Description: Ikaros degradation in isolated human CD8+ T cells. Format: cell-based. As to conditions: increasing doses. On the procedure:
Isolated human CD8+ T cells were treated with increasing doses of EC1-168. This molecule has a DC50 for Ikaros at 10 μM and for CRBN at <1 μM. Unique functional properties may be afforded to the CDM compounds via distinct protein recruitment.
Isolated human CD8+ T cells were treated with increasing doses of EC2-134. This molecule has a DC50 for Ikaros at 10 nM and for CRBN at 100 μM. Unique functional properties may be afforded to the CDM compounds via distinct protein recruitment.

In a further test the target is T5, cereblon (Mus musculus, UniProt Q8C7D2).
T5 construct: from tissue; host or cells: spleen: purified splenic T cells and total splenocytes of treated mice
T5 sequence (Q8C7D2 1-445): T3 sequence (Q8C7D2 1-445)
The experiment in a line: Western blot of cereblon in splenic T cells / splenocytes of mice treated orally with a single dose. As to conditions: for cereblon levels in purified splenic T cells: single oral dose of 75 mg/kg. Format: in vivo. On the procedure: FIG. 24 is a graph of results from Western blots from purified splenic T cells of mice treated orally with a single dose of 75 mg/kg SM2-145. Three mice were obtained from each time point (1, 6, 12, and 24 hrs) after treatment.
FIG. 25 contains a Western blot analysis of purified T cells from mice treated orally with a single dose of 75 mg/kg EC2-035 and EC2-134.

Test [7] concerns CD25 (IL-2 receptor alpha). Description: Expression of activation marker CD25 on activated human T cells. In kind it is cell-based. As to conditions: 10 nM. The text has this: FIG. 23 is a graph showing human T cells activated with a series of immunomodulatory drugs lead to higher levels of expression of the activation marker CD25 (IL-2 receptor alpha) compared to unstimulated cells and control activated cells.

Another test concerns c-Myc. The experiment in a line: Western blot of c-Myc in activated human T cells. In kind it is cell-based. As to conditions: human T cells activated by anti-CD3ε/anti-CD28. The source says:
(§2) On the right is a schematic diagram of CRBN/DDB1/CUL4A and ubiquitin degrading function. […] DMSO was used in these experiments as a vehicle control. […] CRBN is shown for human T cells and vinculin loading control of human and mouse T cells are provided. […] Results shown are representative of three independent experiments.

The next test has as its target T6, BRD4 (Mus musculus, UniProt Q9ESU6).
T6 construct: endogenous in cells
Description: Western blot of BRD4 in activated mouse T cells. In kind it is cell-based. As to conditions: for BRD4 expression / degradation: mouse T cells activated with anti-CD3ε/anti-CD28.
Description: as §2

The test system of another test is IKZF1. Description: Western blot of IKZF1 (Ikaros) in T cells and multiple myeloma cells. Format: cell-based.
Setting [8] is: single oral dose of 12.5, 25, and 75 mg/kg.

Entries after “also recorded” stand apart in the source; their conditions may differ.

T2 sequence (Q96SW2 whole entry, species assumed): as the sequence (Q96SW2 whole entry) above

`Cc1nc2cccc(N)c2c(=O)n1C1CCC(=O)NC1=O` (stereo not shown) [CC122, avadomide, reference compound]: the “T cell function (IL-2 and IFN-γ after anti-CD3 (OKT3) activation)” value in [1] is “actively increasing T cell function”.
Broadly, the Kd is the constant that tells how readily two partners part at equilibrium. One may read the inhibition as the percentage by which the read-out fell short of the control. Consider `O=C1CCC(N2Cc3c(CCCOCCCc4cccc5c4CN(C4CCC(=O)NC4=O)C5=O)cccc3C2=O)C(=O)N1` (stereo not shown) [SM2-144, 3,3′-((Oxybis(propane-3,1-diyl))bis(1-oxoisoindoline-4,2-diyl))bis(piperidine-2,6-dione)], for which, at CRBN, the remaining activity at 10 µM turned out to be 3.05% and the remaining activity at 0.01 µM amounted to 24.1%. On cereblon (CRBN) [2], the Kd was 5.88 µM and the inhibition at 200 µM worked out at 73.9 ± 14.9%. This compound also displayed a Kd on cereblon (CRBN) [3] of 4.4 ± 1.4 µM.
As to `Nc1cccc2c1CN(C1CCC(=O)NC1=O)C2=O` (stereo not shown) [lenalidomide, Lenalidomide], the “cereblon (CRBN) levels (Western blot)” value on cereblon (CRBN) [4] is on record as “not”. In addition, in the test on IL-2 [5], the “IL-2 production (mRNA and protein secretion)” value is “significantly increased; also recorded: augments IL-2 production”. Further, in the test on IL-2 [6], the IL-2 production entry is on record as “not”.
In general, DC50 refers to the concentration at which degradation of the target reaches its halfway point. On to `O=C1CCC(N2C(=O)c3cccc(NCc4ccc(CNc5cccc6c5C(=O)N(C5CCC(=O)NC5=O)C6=O)cc4)c3C2=O)C(=O)N1` (stereo not shown) [EC2-134], for which, on CRBN, the remaining activity at 10 µM stood at 13.8%, the remaining activity at 0.01 µM stood at 4% and the DC50 amounted to 100 µM. The compound also had a DC50 on Ikaros of 0.01 µM. Further, at cereblon, the “cereblon levels in purified splenic T cells” value was “sustained reduction in cereblon levels at 6, 9 and 12 hours”. Besides, on cereblon (setting [8]), the “cereblon levels in purified T cells” value is “inverse dose dependent levels of cereblon” and the “cereblon levels in total splenocytes” value is reported as “inverse dose dependent levels of cereblon”. In addition, the “cereblon levels in purified T cells at the lowest dose” value at cereblon (single oral dose, lowest dose (12.5 mg/kg), compared with Crbn-/- T cells) is on record as “significantly reduced”.
On to `CS(=O)(=O)O.O=C1CC[C@H](N2Cc3c(OCc4ccc(CN5CCN(Cc6ccc(COc7cccc8c7CN([C@H]7CCC(=O)NC7=O)C8=O)cc6)CC5)cc4)cccc3C2=O)C(=O)N1` [EC1-168, (4-(4-(((2-((S)-2,6-dioxopiperidin-3-yl)-1-oxoisoindolin-4-yl)oxy)methyl)benzyl)-114-piperazin-1-yl)(4-(((2-((S)-2,6-dioxopiperidin-3-yl)-1-oxoisoindolin-4-yl)oxy)methyl)phenyl)methylium methyl sulfonate], for which the DC50 at CRBN is less than 1 µM; on Ikaros, 10 µM. For the same compound, in [7], the “expression of the activation marker CD25” value is on record as “induces more immune potentiation”.
Consider `COCCOCCCc1cccc2c1CN(C1CCC(=O)NC1=O)C2=O` (stereo not shown) [SM3-095, 3-(4-(3-(2-Methoxyethoxy)propyl)-1-oxoisoindolin-2-yl)piperidine-2,6-dione], for which the “cereblon (CRBN) levels (Western blot)” value at cereblon (CRBN) [4] was “not”.
As to `Cc1sc2c(c1C)C(c1ccc(Cl)cc1)=N[C@@H](CC(=O)NCCCCNC(=O)COc1cccc3c1C(=O)N(C1CCC(=O)NC1=O)C3=O)c1nnc(C)n1-2` (stereo partly shown) [dBET1], the c-Myc suppression result in the test on c-Myc is given as “Suppression of c-Myc is evident”. Besides, on BRD4, the “BRD4 expression / degradation” value is reported as “degrades BRD4”.
For `O=C1CCC(N2Cc3c(NCc4ccc(CNc5cccc6c5CN(C5CCC(=O)NC5=O)C6=O)cc4)cccc3C2=O)C(=O)N1` (stereo not shown) [EC2-035, 3,3′-(((1,4-Phenylenebis(methylene))bis(azanediyl))bis(1-oxoisoindoline-4,2-diyl))bis(piperidine-2,6-dione)], at CRBN, the remaining activity at 10 µM was 99.7% and the remaining activity at 0.01 µM worked out at 2.32%. For the same compound, at cereblon, the “cereblon levels in purified splenic T cells” value is “sustained reduction in cereblon levels at 6, 9 and 12 hours”.
Regarding `Nc1cccc2c1C(=O)N(C1CCC(=O)NC1=O)C2=O` (stereo not shown) [pomolidomide], in the test with IKZF1, the IKZF1 expression entry is on record as “decreased”. Besides, the “BRD4 expression / degradation” value on BRD4 is “failed to reduce BRD4 expression”. The “effect on dBET1-induced BRD4 degradation” value at BRD4 (mouse T cells, Pom 0.5 μM with dBET1) is “reversed the degradation observed through dBET1”.
`Cc1sc2c(c1C)C(c1ccc(Cl)cc1)=N[C@@H](CC(=O)OC(C)(C)C)c1nnc(C)n1-2` [JQ1]: in the test on c-Myc, the c-Myc suppression result is recorded as “Suppression of c-Myc is evident”.
Take `O=C(COc1cccc2c1C(=O)N(C1CCC(=O)NC1=O)C2=O)NCCOCCOCCNC(=O)COc1cccc2c1C(=O)N(C1CCC(=O)NC1=O)C2=O` (stereo not shown) [SM2-048]: at CRBN, the remaining activity at 10 µM amounted to 15.8% and the remaining activity at 0.01 µM stood at 99.5%. Moreover, at CRBN (anti-CD3/anti-CD28 stimulated human T cells, 0.1, 1, and 10 μM), the “CRBN expression (Western blot)” value was “significant reduction in CRBN expression”. For the same compound, on cereblon (CRBN) [2], the Kd was 11.3 µM and the inhibition at 200 µM was 68.2 ± 3.33%. The Kd at cereblon (CRBN) [3] was 12.3 ± 0.4 µM.
In the case of `O=C1CCC(N2Cc3c(CCCOCCOCCOCCCc4cccc5c4CN(C4CCC(=O)NC4=O)C5=O)cccc3C2=O)C(=O)N1` (stereo not shown) [SM2-129, 3,3′-((((Oxybis(ethane-2,1-diyl))bis(oxy))bis(propane-3,1-diyl))bis(1-oxoisoindoline-4,2-diyl))bis(piperidine-2,6-dione)], on CRBN, the remaining activity at 10 µM amounted to 12.4% and the remaining activity at 0.01 µM was determined as 53.6%. At cereblon (CRBN) [2], the Kd is 11.1 ± 0.58 µM and the inhibition at 200 µM stood at 76.2 ± 1.54%.
